Read-outs that look alike come from different tables or passages of the source. Blank lines part the entries; values can stand above or below the compound they belong to.
Key:
[1] = tested on: immature primary cortical neurons; assay: Oxidative toxicity; type: cell-based, rat; settings: 0.5 µM, 5 mM HCA, MTT
H3K4Me2 in LNCaP cells = assay: Western blot of histone H3 methylation in LNCaP cells; type: cell-based
H3K4Me2 in H460 cells = assay: Western blot of H3K4Me2 in H460 cells; type: cell-based; settings: H460, 48 h, compared with LNCaP
GST-LSD1 [2] = molecular target: T1, GST-LSD1 (Homo sapiens, UniProt O60341); assay: MassSQUIRM LSD1 inhibition assay; type: biochemical; settings: 50 µM inhibitor, 30 min, 215 nM GST-LSD1
GST-LSD1 [3] = molecular target: T1, GST-LSD1; assay: biochemical; type: biochemical; settings: for kinact/KI: read-out: kinact/Ki(inact)
H460 cells [4] = tested on: H460 cells
GST-LSD1 [5] = molecular target: T1, GST-LSD1; settings: cited from earlier work
H460 cells [6] = assay: [3H] thymidine incorporation proliferation assay in H460 cells; type: cell-based; settings: H460, 48 h, 80 µM
[7] = mechanism-based inactivation, extrapolated to zero substrate

kinact (GST-LSD1 [3]): 0.00367 s⁻¹ | KI (inactivation) (GST-LSD1 [3]; [7]): 0.26 ± 0.11 µM | kinact/KI (GST-LSD1 [3]): 14300 M⁻¹ s⁻¹
SMILES: NNCCc1ccc(NC(=O)CCCCc2ccccc2)cc1 [12e]

kinact (GST-LSD1 [3]): 0.00283 s⁻¹ | kinact/KI (GST-LSD1 [3]): 18300 M⁻¹ s⁻¹
SMILES: NNCCc1ccc(NC(=O)CCCc2ccc(Cl)cc2)cc1 [12f]

kinact (GST-LSD1 [3]): 0.004 s⁻¹ | kinact/KI (GST-LSD1 [3]): 15300 M⁻¹ s⁻¹
SMILES: NNCCc1ccc(NC(=O)CCc2ccccc2)cc1 [12c]

kinact (GST-LSD1 [3]): 0.0035 s⁻¹ | kinact/KI (GST-LSD1 [3]): 12300 M⁻¹ s⁻¹
SMILES: NNCCc1ccc(NC(=O)CCCc2ccc([N+](=O)[O-])cc2)cc1 [12i]

KI (inactivation) (GST-LSD1 [3]): 12 ± 2.1 µM | kinact (GST-LSD1 [3]): 0.00367 s⁻¹ | kinact/KI (GST-LSD1 [3]): 300 M⁻¹ s⁻¹
SMILES: NNCCCOc1ccccc1 [10b]

fold weaker LSD1 inhibitor than bizine (GST-LSD1 [3]): ~ 30 fold | kinact (GST-LSD1 [3]): 0.004 s⁻¹ | KI (inactivation) (GST-LSD1 [3]; [7]): 2 ± 0.73 µM | kinact/KI (GST-LSD1 [3]): 2000 M⁻¹ s⁻¹
SMILES: CN(C(=O)CCCc1ccccc1)c1ccc(CCNN)cc1.O=C(O)C(=O)O [12l]
H3K4Me2 changes (in words) (H3K4Me2 in LNCaP cells; 48 h, concentrations up to 10 µM): did not show changes in H3K4Me2

kinact (GST-LSD1 [3]): 0.00367 s⁻¹ | KI (inactivation) (GST-LSD1 [3]; [7]): 1.6 ± 0.49 µM | kinact/KI (GST-LSD1 [3]): 2330 M⁻¹ s⁻¹
SMILES: NNCCc1ccc(N(Cc2ccccc2)C(=O)CCCc2ccccc2)cc1 [12m]

KI (inactivation) (GST-LSD1 [3]): 44 ± 9.7 µM | kinact (GST-LSD1 [3]): 0.0025 s⁻¹ | kinact/KI (GST-LSD1 [3]): 56.7 M⁻¹ s⁻¹
SMILES: NNCCOc1ccccc1 [10a]

KI (inactivation) (GST-LSD1 [3]): 0.28 ± 0.11 µM | kinact (GST-LSD1 [3]): 0.00317 s⁻¹ | kinact/KI (GST-LSD1 [3]): 11700 M⁻¹ s⁻¹
SMILES: NNCCc1ccc(NC(=O)c2ccccc2)cc1 [12a]

kinact (GST-LSD1 [3]): 0.0035 s⁻¹ | kinact/KI (GST-LSD1 [3]): 16700 M⁻¹ s⁻¹
SMILES: NNCCc1ccc(NC(=O)CCc2c[nH]c3ccccc23)cc1 [15a]

KI (inactivation) (GST-LSD1 [3]): 0.37 ± 0.033 µM | kinact (GST-LSD1 [3]): 0.00333 s⁻¹ | kinact/KI (GST-LSD1 [3]): 9000 M⁻¹ s⁻¹
SMILES: NNCCc1ccc(NC(=O)Cc2ccccc2)cc1 [12b]

More lines, now with the values behind:

SMILES: Cl.Cl.NNCCc1ccc(NC(=O)CCCc2ccccc2)cc1 [12d]
survival of neurons after HCA treatment (in words) [1]: significantly enhanced survival | H3K4Me2 band density time course (in words) (H3K4Me2 in LNCaP cells; 10 µM, normalized to vehicle, 3 biological replicates): Statistically significant increases were observed at 6, 24, 48, 72, and 96 h but not at 30 min and 12 h | changes in H3K4Me1, H3K4Me3, unmethylated H3K4, H3K9Me2, H3K9Ac, H3K36Me3 (in words) (H3K4Me2 in LNCaP cells; 0.4–10 µM, 48 h): no significant reproducible changes | effect on LSD1 protein levels (in words) (H3K4Me2 in LNCaP cells; 0.4–10 µM, 48 h): no discernible effect | H3K4Me2 band density (in words) (H3K4Me2 in LNCaP cells; 48 h, 3 µM and 10 µM, three biological replicates): Statistically significant increases | effect on H3K4Me2 levels (in words) (H3K4Me2 in H460 cells): comparable dose-response effects | LSD1 inhibition in MassSQUIRM assay (in words) (GST-LSD1 [2]): very substantial LSD1 inhibition

SMILES: NNCCCN1CCOCC1 [compound 11]
IC50 (GST-LSD1 [3]): > 100 µM | LSD1 inhibitory action (in words) (GST-LSD1 [3]): not compatible with LSD1 inhibition

SMILES: COc1ccc(CCCNN)cc1.Cl.Cl [9e]
KI (inactivation) (GST-LSD1 [3]): 8 ± 3.5 µM | LSD1 inhibitory action (in words) (GST-LSD1 [3]): made little difference | kinact (GST-LSD1 [3]): 0.0025 s⁻¹ | kinact/KI (GST-LSD1 [3]): 317 M⁻¹ s⁻¹

SMILES: NNCCCCc1ccccc1 [9h]
KI (inactivation) (GST-LSD1 [3]): 22 ± 3 µM | kinact (GST-LSD1 [3]): 0.002 s⁻¹ | kinact/KI (GST-LSD1 [3]): 91.7 M⁻¹ s⁻¹

SMILES: Nc1ccccc1NC(=O)c1ccc(CNC(=O)OCc2cccnc2)cc1 [MS-275]
combination effect on inhibition of H460 cell proliferation (in words) (H460 cells [4]): additive to synergistic effects

SMILES: CNNCCc1ccccc1.Cl.Cl [9a]
LSD1 inhibitory action (in words) (GST-LSD1 [3]): negated LSD1 inhibitory action

SMILES: CC(/C=C/C(=O)NO)=C\[C@@H](C)C(=O)c1ccc(N(C)C)cc1 [TSA]
combination effect on inhibition of H460 cell proliferation (in words) (H460 cells [4]): moderate antagonism | combination index (CI) (H460 cells [4]): > 1

SMILES: Nc1ccccc1NC(=O)c1ccc(CNc2nccc(-c3cccnc3)n2)cc1 [MGCD0103]
combination effect on inhibition of H460 cell proliferation (in words) (H460 cells [4]): moderate antagonism | combination index (CI) (H460 cells [4]): > 1

SMILES: CN(C)NCCc1ccccc1 [9b]
IC50 (GST-LSD1 [3]): > 100 µM

SMILES: NNCCc1ccc(NC(=O)/C=C/c2ccccc2)cc1 [compound 13]
kinact (GST-LSD1 [3]): 0.00283 s⁻¹ | kinact/KI (GST-LSD1 [3]): 28300 M⁻¹ s⁻¹

SMILES: CNNCCCc1ccc(OC)cc1 [9f]
IC50 (GST-LSD1 [3]): > 100 µM

SMILES: Nc1ncn([C@@H]2O[C@H](CO)[C@@H](O)[C@H]2O)c(=O)n1 [azacytidine]
combination effect on inhibition of H460 cell proliferation (in words) (H460 cells [4]): moderate antagonism

SMILES: Cc1[nH]c2ccccc2c1CCNCc1ccc(/C=C/C(=O)NO)cc1 [LBH-589]
combination effect on inhibition of H460 cell proliferation (in words) (H460 cells [4]): additive to synergistic effects

SMILES: NNCCc1ccccc1 [phenelzine, reference compound]
concentration needed to extinguish LSD1 activity under MassSQUIRM conditions (GST-LSD1 [5]): greater than 10 mM | H3K4Me2 changes (in words) (H3K4Me2 in LNCaP cells; 48 h, concentrations up to 40 µM): did not induce H3K4Me2 changes | reduction in 3H-thymidine incorporation (H460 cells [6]): < 50% | LSD1 inhibition in MassSQUIRM assay (in words) (GST-LSD1 [2]): negligible impact on LSD1 inhibition

— PMC4076021 (ACS chemical biology, 2014)
